This note sets out measurements from ChEMBL document CHEMBL5291721, “A preclinical secondary pharmacology resource illuminates target-adverse drug reaction associations of marketed drugs” (Nat Commun, 2023).

Assay [1] concerns the target Motilin receptor (Homo sapiens, UniProt O43193).
In assay [2] the target is cGMP-inhibited 3',5'-cyclic phosphodiesterase 3A (Homo sapiens, UniProt Q14432). Format: functional.
The target of assay [3] is Bile salt export pump (Homo sapiens, UniProt O95342). Format: functional.
Chain of Bile salt export pump (O95342 whole entry): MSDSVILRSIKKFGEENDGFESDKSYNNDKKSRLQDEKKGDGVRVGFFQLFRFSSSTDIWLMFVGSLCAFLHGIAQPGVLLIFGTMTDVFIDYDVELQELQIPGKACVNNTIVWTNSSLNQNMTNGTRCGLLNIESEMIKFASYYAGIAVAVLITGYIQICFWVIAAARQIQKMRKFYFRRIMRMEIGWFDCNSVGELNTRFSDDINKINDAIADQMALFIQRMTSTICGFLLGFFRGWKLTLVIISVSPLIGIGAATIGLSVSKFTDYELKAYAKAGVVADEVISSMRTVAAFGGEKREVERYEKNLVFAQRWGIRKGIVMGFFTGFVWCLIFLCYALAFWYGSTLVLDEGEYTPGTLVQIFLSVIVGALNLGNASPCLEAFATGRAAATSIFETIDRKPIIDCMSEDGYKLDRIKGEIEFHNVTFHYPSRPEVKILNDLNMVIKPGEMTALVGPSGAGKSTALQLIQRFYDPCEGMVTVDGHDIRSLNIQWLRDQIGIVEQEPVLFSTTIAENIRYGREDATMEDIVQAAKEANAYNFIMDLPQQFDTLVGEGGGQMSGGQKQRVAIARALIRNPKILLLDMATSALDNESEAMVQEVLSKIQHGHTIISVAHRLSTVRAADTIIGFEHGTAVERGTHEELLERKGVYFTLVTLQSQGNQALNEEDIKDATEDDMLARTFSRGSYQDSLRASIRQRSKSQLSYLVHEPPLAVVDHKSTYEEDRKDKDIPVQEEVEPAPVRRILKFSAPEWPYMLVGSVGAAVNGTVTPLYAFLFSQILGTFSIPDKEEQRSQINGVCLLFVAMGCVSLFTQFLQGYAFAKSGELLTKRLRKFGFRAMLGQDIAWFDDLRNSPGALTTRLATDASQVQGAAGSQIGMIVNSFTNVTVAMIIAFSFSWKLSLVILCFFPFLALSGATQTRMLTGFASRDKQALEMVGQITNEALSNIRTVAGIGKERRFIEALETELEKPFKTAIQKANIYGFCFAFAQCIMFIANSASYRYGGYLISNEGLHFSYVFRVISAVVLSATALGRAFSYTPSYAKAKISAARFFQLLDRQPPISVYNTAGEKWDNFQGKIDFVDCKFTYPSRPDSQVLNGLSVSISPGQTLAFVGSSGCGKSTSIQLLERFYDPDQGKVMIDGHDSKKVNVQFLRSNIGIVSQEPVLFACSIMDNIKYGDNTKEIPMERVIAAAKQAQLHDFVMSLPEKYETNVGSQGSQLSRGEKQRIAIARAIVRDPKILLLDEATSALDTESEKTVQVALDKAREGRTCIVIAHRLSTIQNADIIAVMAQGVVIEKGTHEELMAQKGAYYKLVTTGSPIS
For assay [4], the target named is T1, Adenosine receptor A1 (Homo sapiens, UniProt P30542).
T1 sequence (P30542 whole entry): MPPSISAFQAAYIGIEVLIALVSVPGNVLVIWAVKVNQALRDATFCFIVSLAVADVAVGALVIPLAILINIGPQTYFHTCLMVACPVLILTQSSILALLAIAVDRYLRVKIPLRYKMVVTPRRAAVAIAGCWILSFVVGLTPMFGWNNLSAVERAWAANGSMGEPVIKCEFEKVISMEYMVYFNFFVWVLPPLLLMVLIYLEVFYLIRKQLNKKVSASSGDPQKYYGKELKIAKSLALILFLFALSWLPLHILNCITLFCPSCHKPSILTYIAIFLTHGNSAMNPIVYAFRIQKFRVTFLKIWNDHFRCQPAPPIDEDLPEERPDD

Assay [5] has as its target T2, 5-hydroxytryptamine receptor 1A (Homo sapiens, UniProt P08908).
T2 sequence (P08908 whole entry): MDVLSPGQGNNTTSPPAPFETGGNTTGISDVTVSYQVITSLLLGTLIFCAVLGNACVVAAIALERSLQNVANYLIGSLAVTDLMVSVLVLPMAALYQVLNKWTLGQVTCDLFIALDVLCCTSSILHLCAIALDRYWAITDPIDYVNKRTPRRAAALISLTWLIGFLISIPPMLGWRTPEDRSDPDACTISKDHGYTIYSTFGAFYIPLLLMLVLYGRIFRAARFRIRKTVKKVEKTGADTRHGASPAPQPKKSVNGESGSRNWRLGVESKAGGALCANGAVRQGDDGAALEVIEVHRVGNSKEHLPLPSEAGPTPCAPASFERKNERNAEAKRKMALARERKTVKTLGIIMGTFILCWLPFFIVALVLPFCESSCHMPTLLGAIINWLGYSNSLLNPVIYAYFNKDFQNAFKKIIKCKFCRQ
The format is functional, cell-based.

The target in assay [6] is Delta-type opioid receptor (Homo sapiens, UniProt P41143).
Chain of Delta-type opioid receptor (P41143 whole entry): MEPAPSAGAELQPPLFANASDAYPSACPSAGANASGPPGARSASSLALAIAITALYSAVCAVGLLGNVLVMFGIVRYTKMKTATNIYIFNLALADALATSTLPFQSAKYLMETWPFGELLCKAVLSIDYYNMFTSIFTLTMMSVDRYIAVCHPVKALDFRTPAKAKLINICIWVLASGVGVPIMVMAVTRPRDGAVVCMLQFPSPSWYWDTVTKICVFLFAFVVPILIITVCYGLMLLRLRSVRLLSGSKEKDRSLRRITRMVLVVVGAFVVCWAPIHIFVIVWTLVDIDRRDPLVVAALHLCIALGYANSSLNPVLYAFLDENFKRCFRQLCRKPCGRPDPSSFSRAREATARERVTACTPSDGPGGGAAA
In assay [7] the target is 5-hydroxytryptamine receptor 2B (Homo sapiens, UniProt P41595). The format is functional, cell-based.
Chain of 5-hydroxytryptamine receptor 2B (P41595 whole entry): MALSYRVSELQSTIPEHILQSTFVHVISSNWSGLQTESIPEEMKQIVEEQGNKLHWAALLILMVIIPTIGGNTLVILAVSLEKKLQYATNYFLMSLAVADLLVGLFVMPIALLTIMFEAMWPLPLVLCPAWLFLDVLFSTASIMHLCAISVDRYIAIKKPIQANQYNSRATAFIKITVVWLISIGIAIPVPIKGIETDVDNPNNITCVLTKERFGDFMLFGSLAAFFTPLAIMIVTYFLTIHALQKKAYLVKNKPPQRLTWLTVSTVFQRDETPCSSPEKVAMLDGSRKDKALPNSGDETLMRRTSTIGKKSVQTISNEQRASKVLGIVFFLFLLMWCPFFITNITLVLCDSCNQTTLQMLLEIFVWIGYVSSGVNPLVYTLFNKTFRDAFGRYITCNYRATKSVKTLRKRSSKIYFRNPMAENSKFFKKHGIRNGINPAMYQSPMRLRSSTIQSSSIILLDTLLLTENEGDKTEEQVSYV
Assay [8] concerns the target T3, Equilibrative nucleoside transporter 1 (Homo sapiens, UniProt Q99808).
T3 sequence (Q99808 whole entry): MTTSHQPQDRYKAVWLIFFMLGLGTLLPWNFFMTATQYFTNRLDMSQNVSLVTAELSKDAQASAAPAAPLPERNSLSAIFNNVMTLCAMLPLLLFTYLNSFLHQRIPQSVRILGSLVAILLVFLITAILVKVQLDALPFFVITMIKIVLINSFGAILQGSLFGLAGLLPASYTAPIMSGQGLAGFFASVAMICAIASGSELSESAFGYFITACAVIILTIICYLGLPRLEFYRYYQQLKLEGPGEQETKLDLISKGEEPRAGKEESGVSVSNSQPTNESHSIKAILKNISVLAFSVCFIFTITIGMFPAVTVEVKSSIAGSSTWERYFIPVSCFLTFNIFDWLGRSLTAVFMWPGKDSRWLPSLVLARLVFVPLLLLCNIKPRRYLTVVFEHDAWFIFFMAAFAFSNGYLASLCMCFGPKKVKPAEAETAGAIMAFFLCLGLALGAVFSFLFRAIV

For assay [9], the target named is Neuronal acetylcholine receptor subunit alpha-4 (Homo sapiens, UniProt P43681).
Chain of Neuronal acetylcholine receptor subunit alpha-4 (P43681 whole entry): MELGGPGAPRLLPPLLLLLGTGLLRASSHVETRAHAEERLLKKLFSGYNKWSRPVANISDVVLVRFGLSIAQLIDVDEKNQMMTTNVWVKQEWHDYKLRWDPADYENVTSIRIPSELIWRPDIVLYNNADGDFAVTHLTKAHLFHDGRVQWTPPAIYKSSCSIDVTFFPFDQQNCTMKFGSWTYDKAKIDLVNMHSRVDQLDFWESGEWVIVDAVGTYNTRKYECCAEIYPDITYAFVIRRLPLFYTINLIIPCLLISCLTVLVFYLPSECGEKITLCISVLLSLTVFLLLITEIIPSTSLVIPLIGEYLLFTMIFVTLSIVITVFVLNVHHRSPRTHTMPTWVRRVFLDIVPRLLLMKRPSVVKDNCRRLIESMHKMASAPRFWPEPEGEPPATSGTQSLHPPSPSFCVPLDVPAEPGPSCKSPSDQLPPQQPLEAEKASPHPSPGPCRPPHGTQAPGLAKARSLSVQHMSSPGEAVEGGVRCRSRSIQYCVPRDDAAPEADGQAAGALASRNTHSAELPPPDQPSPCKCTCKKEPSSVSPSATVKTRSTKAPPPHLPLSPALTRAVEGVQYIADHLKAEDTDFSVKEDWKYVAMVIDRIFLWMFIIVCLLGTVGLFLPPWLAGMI
Assay [10] deals with T4, Amine oxidase [flavin-containing] A (Homo sapiens, UniProt P21397).
T4 sequence (P21397 whole entry): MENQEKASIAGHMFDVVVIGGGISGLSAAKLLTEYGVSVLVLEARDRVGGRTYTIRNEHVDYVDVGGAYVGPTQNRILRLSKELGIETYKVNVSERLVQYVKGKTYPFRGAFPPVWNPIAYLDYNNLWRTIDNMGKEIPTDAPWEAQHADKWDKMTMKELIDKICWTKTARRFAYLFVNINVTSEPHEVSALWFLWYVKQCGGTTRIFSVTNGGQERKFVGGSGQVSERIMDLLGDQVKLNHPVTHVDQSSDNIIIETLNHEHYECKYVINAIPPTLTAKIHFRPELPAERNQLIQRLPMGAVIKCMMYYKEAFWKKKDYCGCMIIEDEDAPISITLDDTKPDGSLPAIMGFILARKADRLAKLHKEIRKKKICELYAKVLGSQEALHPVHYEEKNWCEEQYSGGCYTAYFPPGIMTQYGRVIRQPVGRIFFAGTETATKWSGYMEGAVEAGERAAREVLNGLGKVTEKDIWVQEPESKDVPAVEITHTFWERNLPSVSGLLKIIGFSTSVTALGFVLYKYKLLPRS
Format: functional.

Assay [11] has as its target T5, 5-hydroxytryptamine receptor 2C (Homo sapiens, UniProt P28335).
T5 sequence (P28335 whole entry): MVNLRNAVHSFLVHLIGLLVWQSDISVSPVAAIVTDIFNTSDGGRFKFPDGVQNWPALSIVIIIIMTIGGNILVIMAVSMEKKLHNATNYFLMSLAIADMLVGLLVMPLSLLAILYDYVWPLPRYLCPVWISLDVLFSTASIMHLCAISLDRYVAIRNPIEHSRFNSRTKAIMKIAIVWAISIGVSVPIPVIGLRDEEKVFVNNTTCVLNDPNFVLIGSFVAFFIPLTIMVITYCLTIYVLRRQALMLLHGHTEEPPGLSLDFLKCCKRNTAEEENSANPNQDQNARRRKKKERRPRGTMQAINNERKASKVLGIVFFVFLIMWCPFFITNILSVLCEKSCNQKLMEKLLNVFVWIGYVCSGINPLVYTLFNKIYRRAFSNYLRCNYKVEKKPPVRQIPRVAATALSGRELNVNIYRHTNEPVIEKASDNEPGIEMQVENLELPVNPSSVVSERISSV

Some results are limits rather than exact numbers.
Also: assay procedure not described here.

Chain of Motilin receptor (O43193 whole entry): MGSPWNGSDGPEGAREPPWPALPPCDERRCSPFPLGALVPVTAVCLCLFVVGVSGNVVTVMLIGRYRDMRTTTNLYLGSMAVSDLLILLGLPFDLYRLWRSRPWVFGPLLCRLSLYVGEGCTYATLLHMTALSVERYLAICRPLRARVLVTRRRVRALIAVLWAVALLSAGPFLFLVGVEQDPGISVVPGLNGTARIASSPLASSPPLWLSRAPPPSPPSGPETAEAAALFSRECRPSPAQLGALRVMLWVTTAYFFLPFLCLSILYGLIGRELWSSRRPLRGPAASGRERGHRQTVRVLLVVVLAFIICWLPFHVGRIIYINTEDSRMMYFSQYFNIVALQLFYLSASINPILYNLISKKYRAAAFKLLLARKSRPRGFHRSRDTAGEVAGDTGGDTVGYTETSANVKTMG
Chain of cGMP-inhibited 3',5'-cyclic phosphodiesterase 3A (Q14432 whole entry): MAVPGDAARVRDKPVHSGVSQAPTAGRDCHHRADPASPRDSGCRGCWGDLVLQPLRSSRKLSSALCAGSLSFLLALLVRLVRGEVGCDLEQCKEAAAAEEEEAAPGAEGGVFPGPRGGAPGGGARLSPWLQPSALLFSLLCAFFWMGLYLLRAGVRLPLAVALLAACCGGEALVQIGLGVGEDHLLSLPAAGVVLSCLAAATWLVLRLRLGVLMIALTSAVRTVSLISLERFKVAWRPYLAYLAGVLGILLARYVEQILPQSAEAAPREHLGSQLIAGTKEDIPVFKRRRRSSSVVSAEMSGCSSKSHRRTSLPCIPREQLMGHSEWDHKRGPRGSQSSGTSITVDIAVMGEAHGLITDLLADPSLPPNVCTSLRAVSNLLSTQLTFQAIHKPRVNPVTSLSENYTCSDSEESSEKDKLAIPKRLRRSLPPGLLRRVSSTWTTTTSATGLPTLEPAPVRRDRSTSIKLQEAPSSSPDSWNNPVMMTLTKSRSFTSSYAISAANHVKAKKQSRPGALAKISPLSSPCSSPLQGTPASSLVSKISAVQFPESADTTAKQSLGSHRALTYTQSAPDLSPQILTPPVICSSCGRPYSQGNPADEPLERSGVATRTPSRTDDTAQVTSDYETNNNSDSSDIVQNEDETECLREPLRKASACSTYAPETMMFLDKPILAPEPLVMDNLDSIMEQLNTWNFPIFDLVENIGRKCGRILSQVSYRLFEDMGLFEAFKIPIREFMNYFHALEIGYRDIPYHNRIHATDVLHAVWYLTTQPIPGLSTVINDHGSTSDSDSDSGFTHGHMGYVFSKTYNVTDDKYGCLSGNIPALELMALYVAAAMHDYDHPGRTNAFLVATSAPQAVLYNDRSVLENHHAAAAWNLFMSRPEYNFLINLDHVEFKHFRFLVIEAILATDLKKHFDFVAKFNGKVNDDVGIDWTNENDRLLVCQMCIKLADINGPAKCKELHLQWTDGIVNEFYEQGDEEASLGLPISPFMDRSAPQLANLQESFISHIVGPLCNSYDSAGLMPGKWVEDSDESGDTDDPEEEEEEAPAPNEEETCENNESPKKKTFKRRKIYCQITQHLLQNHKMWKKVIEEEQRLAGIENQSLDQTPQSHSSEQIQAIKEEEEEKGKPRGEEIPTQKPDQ

One may read the AC50 as the concentration giving half of the maximal activity seen. As to `CC(C)NCC(O)COc1ccc(COCCOC(C)C)cc1` (stereo unspecified) [BISOPROLOL], the AC50 in [1] is over 10 µM; in assay [2] it was over 30 µM; in [3] it was over 300 µM; in assay [4], over 30 µM; in assay [5], over 10 µM; in [6] it was over 10 µM. Besides, the AC50 was over 10 µM in assay [7]; over 30 µM in [8]; over 10 µM in assay [9]; over 10 µM in [10]; over 30 µM in assay [11].
As to `COC(=O)[C@@H]1CC2=CC(=O)CC[C@]2(C)[C@@]23O[C@@H]2C[C@@]2(C)[C@@H](CC[C@@]24CCC(=O)O4)[C@H]13` [EPLERENONE], the AC50 is over 30 µM in assay [1]; over 30 µM in assay [2]; over 300 µM in assay [3]; over 30 µM in [4]; over 30 µM in assay [5]; over 30 µM in assay [6]. For the same compound, the AC50 in assay [7], in assay [8], in assay [9], in assay [10] and in [11] was over 30 µM throughout.
As to `Cc1ccc(C(=O)c2cc(O)c(O)c([N+](=O)[O-])c2)cc1` [TOLCAPONE], the AC50 is over 10 µM in assay [1]; 18 µM in assay [2]; 30.3 µM in assay [3]; 15.6 µM in assay [4]; over 10 µM in assay [5]; over 30 µM in [6]. Further, the AC50 in assay [7] was over 10 µM; in [8], over 30 µM; in assay [9], over 10 µM; in [10], over 10 µM; in assay [11], over 10 µM.
On to `CN(CCOc1ccc(NS(C)(=O)=O)cc1)CCc1ccc(NS(C)(=O)=O)cc1` [DOFETILIDE], for which the AC50 in [1] was over 10 µM; in assay [2], over 30 µM; in assay [3], over 300 µM; in assay [4], over 30 µM; in assay [5] it was over 30 µM; in assay [6], over 30 µM. Besides, the half-maximal activity concentration (AC50) in assay [7] was over 30 µM; in assay [8], over 30 µM; in [9], over 10 µM; in assay [10], over 10 µM; in assay [11], over 30 µM.
On to `COC(=O)N[C@H](C(=O)N1CCC[C@H]1c1nc(-c2ccc(-c3ccc(-c4c[nH]c([C@@H]5CCCN5C(=O)[C@@H](NC(=O)OC)C(C)C)n4)cc3)cc2)c[nH]1)C(C)C`, for which the AC50 in [1] was over 30 µM; in [2], over 30 µM; in assay [3], 5.9 µM; in [4], over 30 µM; in assay [5], over 30 µM; in [6] it was over 30 µM. Moreover, the AC50 in assay [7], in assay [8], in assay [9], in [10] and in [11] was over 30 µM throughout.
Regarding `COC(=O)N[C@H](C(=O)N[C@@H](Cc1ccccc1)[C@@H](O)CN(Cc1ccc(-c2ccccn2)cc1)NC(=O)[C@@H](NC(=O)OC)C(C)(C)C)C(C)(C)C` [ATAZANAVIR], the AC50 is 6.4 µM in [1]; over 30 µM in assay [2]; 2 µM in assay [3]; over 30 µM in assay [4]; over 10 µM in assay [5]; over 30 µM in [6]. The AC50 in assay [7] is over 10 µM; in assay [8], over 30 µM; in assay [9], over 30 µM; in [10], over 10 µM; in [11], over 30 µM.
`CC[C@H](C)C(=O)O[C@H]1C[C@H](O)C=C2C=C[C@H](C)[C@H](CC[C@@H](O)C[C@@H](O)CC(=O)O)[C@H]21` [PRAVASTATIN]: the AC50 in assay [1] is over 30 µM; in assay [2], over 30 µM; in assay [3], over 100 µM; in [4], over 30 µM; in [5], over 30 µM; in assay [6], over 30 µM. For the same compound, the AC50 in assay [7], in assay [8], in assay [9], in assay [10] and in assay [11] was over 30 µM throughout.
For `Oc1ncnc2[nH]ncc12` [ALLOPURINOL], the AC50 in assay [1] is over 10 µM; in assay [2] it was over 30 µM; in assay [3] it was over 300 µM; in assay [4] it was over 30 µM; in assay [5] it was over 10 µM; in [6], over 30 µM. For the same compound, the half-maximal activity concentration (AC50) was over 10 µM in assay [7]; over 30 µM in assay [8]; over 10 µM in [9]; over 30 µM in [10]; over 30 µM in assay [11].
`O=C(CCCCCCC(=O)Nc1ccccc1)NO` [VORINOSTAT]: the AC50 in assay [1] was over 30 µM; in assay [2] it was over 30 µM; in assay [3], over 300 µM; in [4] it was over 30 µM; in assay [5], over 30 µM; in [6] it was over 30 µM. The AC50 in [7], in [8], in assay [9], in [10] and in assay [11] was over 30 µM each time.
With `CC(C)Cc1ccc(CC(=O)O)cc1` [IBUFENAC], the AC50 in assay [1] is over 30 µM; in assay [2], over 30 µM; in assay [3], over 300 µM; in [4], over 30 µM; in assay [5], over 30 µM; in assay [6] it was over 30 µM. Also, the AC50 in assay [7], in assay [8], in assay [9], in assay [10] and in assay [11] was over 30 µM in each case.
With `C[C@H]1C[C@@H]2[C@H]([C@@H](O)C[C@@]3(C)[C@H]2CC[C@]3(O)C(=O)CO)[C@@]2(C)C=CC(=O)C=C12` [METHYLPREDNISOLONE], the AC50 in assay [1] was over 10 µM; in assay [2] it was over 30 µM; in assay [3], 140 µM; in assay [4], over 10 µM; in assay [5], over 10 µM; in [6] it was over 30 µM. Also, the AC50 is over 10 µM in assay [7]; over 10 µM in assay [8]; over 10 µM in [9]; over 30 µM in assay [10]; over 30 µM in assay [11].
